The subject of data set [1] is r-AppA. The class given is biochemical, Yersinia intermedia. The settings on record: 1 mM, pH 4.5.
The nature of data set [2]: Heat stability of r-AppA at 80° C. The class given is physicochemical. As to the method: (§1) As is shown in FIG. 3A, the enzyme activity varied with temperature. The temperature optima were determined at the pH optimum (pH 4.5) ranging the temperature values from 20 to 80° C. […] As is shown in FIG. 3B, when the enzyme was left at 80° C. for 10 minutes, over 50% of the activity was remained, and 40% of the activity was remained, at 80° C. for 1 hour. Compared to AppA from E. coli, which was widely used in feed industry as a feed additive, the r-AppA are higher stability at higher temperatures.

The test system of data set [3] is pepsin. Nature of the data set: Protease resistance of r-AppA, incubation with pepsin. The settings on record: 0.025 mg/ml phytase, 0.1 mg/ml pepsin, 37° C., 5 min to 2 h. The class given is biochemical. As to the method: (§2) To determine the protease resistance, the purified phytase (0.025 mg/ml) was incubated with 0.1 mg/ml of pepsin and trypsin at 37° C. And then, sample incubated was collected respectively at 5 min, 10 min, 20 min, 30 min, 1 h, and 2 hs.

Data set [4] is described as follows: Specific activity of purified r-AppA, ferrous sulfate-molybdenum blue method. The class given is biochemical. The settings on record: r-AppA purified through Sephacryl S-200; pH 4.5; protein by Lowry method. How it is done: A total of 72 transformants were analyzed for phytase activity by ferrous sulfate-molybdenum blue method. 950 μl of substrate solution (4 mM sodium phytase in 0.25M sodium acetate buffer, pH5.0) was added to 50 μl diluted enzyme solution, which was reacted at 37° C. for 30 minutes. Then, 1 mL of 10% TCA (trichloroacetic acid) solution was added to stop the reaction. As a control, TCA solution was added into the enzyme solution to inactivate the enzyme and then substrate solution was added. After the reaction has terminated, 2 mL of reagent C (0.576M acid sulfate, 1% ammonium molybdate, 7.32% Ferrous sulfate.7H2O) was added, and left for 10 minutes. The intensity of the blue color was measured at 700 nm, and activities in enzyme solution and in a control were measured. 1 unit of phytase activity was determined to be the enzyme amount releasing 1 μmol of phosphate for 1 minute. […]
In order to determinate the specific activity, the concentration of the r-AppA purified through Sephacryl S-200 was determined by the Lowry method, and the enzyme activity of the r-AppA purified was determined by ferrous sulfate-molybdenum blue method at pH 4.5. As a result, the specific activity of r-AppA purified was 3960±248 U/mg, which is the highest specific activity, comparing to other phytases recorded previously.

The nature of data set [5]: pH stability of r-AppA. The class given is physicochemical. The settings on record: 37° C. As to the method:
(§3) The r-AppA purified through Sephacryl S-200 was investigated an enzyme activity of phytase, according to temperature and pH. The effect of pH on phytase activity was determined using the following buffer solutions: glycine-HCl, pH 1.5-3.5; Na acetate-acetic acid, pH 3.5-6.0; Tris-HCl, pH 6.0-8.5, and glycine-NaOH, pH 8.5-10. All buffers used for dilution contained 0.05% BSA and 0.05% Triton. As is shown in FIG. 2, the enzyme activity varied with pH. […] 70% of the enzyme activity was still maintained at pH 2.5, and 65% of the enzyme activity was still maintained at pH 5.5. […] And over 70% activity still remained at pH 1.0-2.0.

Data set [6] in a line: Enzyme activity of r-AppA according to temperature and pH. The format is biochemical. As to the method:
A total of 72 transformants were analyzed for phytase activity by ferrous sulfate-molybdenum blue method. 950 μl of substrate solution (4 mM sodium phytase in 0.25M sodium acetate buffer, pH5.0) was added to 50 μl diluted enzyme solution, which was reacted at 37° C. for 30 minutes. Then, 1 mL of 10% TCA (trichloroacetic acid) solution was added to stop the reaction. As a control, TCA solution was added into the enzyme solution to inactivate the enzyme and then substrate solution was added. After the reaction has terminated, 2 mL of reagent C (0.576M acid sulfate, 1% ammonium molybdate, 7.32% Ferrous sulfate.7H2O) was added, and left for 10 minutes. The intensity of the blue color was measured at 700 nm, and activities in enzyme solution and in a control were measured. 1 unit of phytase activity was determined to be the enzyme amount releasing 1 μmol of phosphate for 1 minute. Two days after methanol induction, 11 transformants out of 72 produced phytase activity from 48 to 270 U/mL of medium. Obviously, the ORF obtained above, was a novel gene, which encoded a polypeptide with phytase activity. The polypeptide with phytase activity, which encoded by mature region of OFR, was named r-AppA.
as §3, §1

Data set [7] relates to trypsin. Nature of the data set: Protease resistance of r-AppA, incubation with trypsin. The format is biochemical. The settings on record: 0.025 mg/ml phytase, 0.1 mg/ml trypsin, 37° C., 5 min to 2 h. As to the method:
as §2

The record followed here is US8455620B2, “Cloning and expression of a novel phytase” (Feed Research Institute Chinese Academy of Agricultural …, priority 2006, dated 2013).

Entries after “also recorded” stand apart in the source; their conditions may differ. Where two headings read alike, the source gives them in different places.

Consider `[Mg+2]` [Mg], for which the “Enzyme activity of r-AppA (control = 100)” value in data set [1] was 94.

`[Li+]` [Li]: the “Enzyme activity of r-AppA (control = 100)” value in data set [1] is 95.

Turning to `[Na+]` [Na], the “Enzyme activity of r-AppA (control = 100)” value in data set [1] amounted to 95.

In the case of `[Co+2]` [Co], the “Enzyme activity of r-AppA (control = 100)” value in data set [1] is 93.

In the case of `O=C(O)CN(CCN(CC(=O)O)CC(=O)O)CC(=O)O` [EDTA], in data set [1], the “Enzyme activity of r-AppA (control = 100)” value is 101 and the “effect on enzyme activity of r-AppA, in words” value (“effect on enzyme activity” below) is listed as “not significantly changed”.

With `[Ag+]` [Ag], the “Enzyme activity of r-AppA (control = 100)” value in data set [1] was determined as 84.

With `CCCCCCCCCCCCOS(=O)(=O)[O-].[Na+]` [SDS], in data set [1], the “Enzyme activity of r-AppA (control = 100)” value is listed as 9 and the “effect on enzyme activity” value is “almost lost”.

For the compound `[Ni+2]` [Ni], in data set [1], the “Enzyme activity of r-AppA (control = 100)” value is 98.

As to “r-AppA: polypeptide with phytase activity encoded by mature region of the ORF from Yersinia intermedia H-27, expressed in Pichia pastoris (SEQ ID NO: 3)”, the “activity remained (heat stability)” value is “over 50%” in data set [2] (80° C. for 10 minutes) and 40% in data set [2] (80° C. for 1 hour). Besides, the “phytase activity after incubation with pepsin” value in data set [3] is “not significantly changed”; in data set [3] (listed as phytase), “strong resistance”. The compound also gave a specific activity in data set [4] of 3960±248 U/mg. The “activity remained (pH stability)” value in data set [5] (pH 1.0-2.0, 2 hours) is listed as “over 70%”; in data set [5] (pH 2.5-10, 2 hours), “over 85%”. Moreover, the “enzyme activity maintained (relative to maximum)” value in data set [6] (at pH 2.5) was determined as 70%; in data set [6] (at pH 5.5) it was 65%. Also, the “temperature of highest activity (optimal temperature)” value in data set [6] (at pH 4.5, 20 to 80° C.) turned out to be 55 °C. In addition, in data set [6] (buffers pH 1.5-10), the “pH of highest activity (optimal pH)” value was determined as 4.5. Moreover, the “phytase activity after incubation with trypsin” value in data set [7] is reported as “not significantly changed”; in data set [7] (listed as phytase) it was “strong resistance”.

Regarding `[Cu+2]` [Cu], the “Enzyme activity of r-AppA (control = 100)” value in data set [1] is reported as 61. In addition, the “effect on enzyme activity” value in data set [1] (listed as Cu^2+) is on record as “obviously inhibited; also recorded: strongly inhibited”.

As to `[Zn+2]` [Zn], the “Enzyme activity of r-AppA (control = 100)” value in data set [1] is listed as 44. The “effect on enzyme activity” value in data set [1] (listed as Zn^2+) was “obviously inhibited; also recorded: strongly inhibited”.

On to `[K+]` [K], for which the “Enzyme activity of r-AppA (control = 100)” value in data set [1] stood at 99.

Take `[Fe+2]` [Fe]: the “Enzyme activity of r-AppA (control = 100)” value in data set [1] stood at 47. For the same compound, in data set [1] (listed as Fe^2+), the “effect on enzyme activity” value is “obviously inhibited; also recorded: strongly inhibited”.

Take `[Ca+2]` [Ca]: the “Enzyme activity of r-AppA (control = 100)” value in data set [1] is 98.

In the case of `[Mn+2]` [Mn], in data set [1], the “Enzyme activity of r-AppA (control = 100)” value was determined as 104 and the “effect on enzyme activity” value was “weakly enhanced”.
